Experimental data reported in patent US9388142B2, “Quinazolinone derivatives as PARP inhibitors” (MERCK PATENT GMBH, priority 2012, dated 2016).
Where a name gives a salt, the structure may show the parent alone. Read-outs that look alike come from different tables or passages of the source. Blank lines part the entries; values can stand above or below the compound they belong to.

How the values were obtained:
[1] = target: T1, GST-tagged Tankyrase-1 (1023-1327 aa) (Homo sapiens, UniProt O95271); assay: biochemical
T1 construct: GST-tagged Tankyrase-1 (1023-1327 aa)
T1 sequence (O95271 1023-1327): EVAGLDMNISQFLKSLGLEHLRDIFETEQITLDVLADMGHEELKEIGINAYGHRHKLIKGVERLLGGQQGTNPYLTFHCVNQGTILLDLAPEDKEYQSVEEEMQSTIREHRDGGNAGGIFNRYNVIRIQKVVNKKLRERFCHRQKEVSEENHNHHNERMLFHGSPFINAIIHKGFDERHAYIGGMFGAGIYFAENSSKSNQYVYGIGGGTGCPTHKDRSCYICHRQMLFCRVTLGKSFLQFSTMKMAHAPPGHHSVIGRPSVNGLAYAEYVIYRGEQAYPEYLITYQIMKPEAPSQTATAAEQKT
From the text: aq (aqueous), h (hour), g (gram), L (liter), mg (milligram), MHz (Megahertz), min. (minute), mm (millimeter), mmol (millimole), mM (millimolar), m.p. (melting point), eq (equivalent), mL (milliliter), L (microliter), ACN (acetonitrile), AcOH (acetic acid), CDCl3 (deuterated chloroform), CD3OD (deuterated methanol), CH3CN (acetonitrile), c-hex (cyclohexane), DCC (dicyclohexyl carbodiimide), DCM (dichloromethane), DIC (diisopropyl carbodiimide), DIEA (diisopropylethyl-amine), DMF (dimethylformamide), DMSO (dimethylsulfoxide), DMSO-d6 (deuterated dimethylsulfoxide), EDC (1-(3-dimethyl-amino-propyl)-3-ethylcarbodiimide), ESI (Electro-spray ionization), EtOAc (ethyl acetate), Et2O (diethyl ether), EtOH (ethanol), HATU (dimethylamino-([1,2,3]triazolo[4,5-b]pyridin-3-yloxy)-methylene]-dimethylammonium hexafluorophosphate), HPLC (High Performance Liquid Chromatography), i-PrOH (2-propanol), K2CO3 (potassium carbonate), LC (Liquid Chromatography), MeOH (methanol), MgSO4 (magnesium sulfate), MS (mass spectrometry), MTBE (Methyl tert-butyl ether), NaHCO3 (sodium bicarbonate), NaBH4 (sodium borohydride), NMM (N-methyl morpholine), NMR (Nuclear Magnetic Resonance), PyBOP (benzotriazole-1-yl-oxy-trispyrrolidino-phosphonium hexafluorophosphate), RT (room temperature), Rt (retention time), SPE (solid phase extraction), TBTU (2-(1-H-benzotriazole-1-yl)-1,1,3,3-tetramethyluromium tetrafluoro borate), TEA (triethylamine), TFA (trifluoroacetic acid), THF (tetrahydrofuran), TLC (Thin Layer Chromatography), UV (Ultraviolet). Description of the In Vitro Assays Abbreviations: GST=Glutathione-S-transferase FRET=Fluorescence resonance energy transfer HTRF®=(homogenous time resolved fluorescence) HEPES=4-(2-hydroxyethyl)-1-piperazine ethanesulfonic acid buffer DTT=Dithiothreitol BSA=bovine serum albumin CHAPS=detergent; CHAPS=3[(3-cholamidopropyl)dimethylammonio]-1-propanesulfonate Streptavidin-XLent® is a high grade streptavidin-XL665 conjugate for which the coupling conditions have been optimized to yield a conjugate with enhanced performances for some assays, particularly those requiring high sensitivity.
(§1) The autoparsylation assay is run in two steps: the enzymatic reaction in which GST-tagged Tankyrase-1, resp Tankyrase-2 transferred biotinylated ADP-ribose to itself from biotinylated NAD as co-substrate and the detection reaction where a time resolved FRET between cryptate labelled anti-GST bound to the GST tag of the enzyme and Xlent® labelled-streptavidin bound the biotin-parsylation residue is analysed. The autoparsylation activity was detectable directly via the increase in HTRF signal.
The autoparsylation assay is performed as 384-well HTRF® (Cisbio, Codolet, France) assay format in Greiner low volume nb 384-well microtiter plates and is used for high throughput screen. […] The reaction is stopped by the addition of 1 μl 50 mM EDTA solution. […] The ratio of the emission signals is determined. The full value used is the inhibitor-free reaction. […] The inhibitory values (IC50) are determined using either the program Symyx Assay Explorer® or Condosseo® from GeneData.

[2] = target: T2, GST-tagged Tnks-1 (1023-1327 aa) (Homo sapiens, UniProt O95271); assay: TNKS1 activity ELISA (autoparsylation assay); assay type: biochemical; conditions: read-out: IC50 TNKS1 ELISA
T2 construct: GST-tagged Tnks-1 (1023-1327 aa, prepared in-house); made in house
T2 sequence (O95271 1023-1327): as above
Method: Description of the TNKS1 and TNKS2 ELISA Assay
Then the activity assay with biotinylated NAD is performed in the absence/presence of the compounds. During the enzymatic reaction GST tagged TNKS transfers biotinylated ADP-ribose to itself from biotinylated NAD as co-substrate. For the detection streptavidin-HRP conjugate is added that binds to the biotinylated TNKS and is thereby captured to the plates. The amount of biotinylated resp. autoparsylated TNKS is detected with a luminescence substrate for HRP. The level of the luminescence signal correlates directly with the amount of autoparsylated TNKS and therefore with activity of TNKS.
The activity ELISA is performed in 384 well Glutathione coated microtiter plates (Express capture Glutathione coated plate, Biocat, Heidelberg, Germany). The plates are pre-equilibrated with PBS. […] The plates are washed 3 times with PBS-Tween-20. The wells are blocked by incubation at room temperature for 20 minutes with 50 μl blocking buffer (PBS, 0.05% Tween-20, 0.5% BSA). Afterwards the plates are washed 3 times with PBS-Tween-20. […] The reaction is stopped by 3 times washing with PBS-Tween-20. For the detection 50 μl of 20 ng/μl Streptavidin, HRP conjugate (MoBiTec, Gottingen, Germany) in PBS/0.05% Tween-20/0.01% BSA are added and the plates are incubated for 30 minutes at room temperature. After three times washing with PBS-Tween-20 50 μl of SuperSignal ELISA Femto Maximum sensitivity substrate solution (ThermoFisherScientific (Pierce), Bonn, Germany) are added. Following a 1 minute incubation at room temperature luminescence signals are measured with an Envision multimode reader (Perkin Elmer LAS Germany GmbH) at 700 nm. The full value used is the inhibitor-free reaction. […] The inhibitory values (IC50) are determined using either the program Symyx Assay Explorer® or Condosseo® from GeneData.

His-tagged Parp-1 = target: T3, His-tagged Parp-1 (Homo sapiens, UniProt P09874); assay: PARP-1 autoparsylation assay (HTRF); assay type: biochemical
T3 construct: purchased Enzo Life Sciences GmbH, Lörrach, Germany
T3 sequence (P09874 whole entry): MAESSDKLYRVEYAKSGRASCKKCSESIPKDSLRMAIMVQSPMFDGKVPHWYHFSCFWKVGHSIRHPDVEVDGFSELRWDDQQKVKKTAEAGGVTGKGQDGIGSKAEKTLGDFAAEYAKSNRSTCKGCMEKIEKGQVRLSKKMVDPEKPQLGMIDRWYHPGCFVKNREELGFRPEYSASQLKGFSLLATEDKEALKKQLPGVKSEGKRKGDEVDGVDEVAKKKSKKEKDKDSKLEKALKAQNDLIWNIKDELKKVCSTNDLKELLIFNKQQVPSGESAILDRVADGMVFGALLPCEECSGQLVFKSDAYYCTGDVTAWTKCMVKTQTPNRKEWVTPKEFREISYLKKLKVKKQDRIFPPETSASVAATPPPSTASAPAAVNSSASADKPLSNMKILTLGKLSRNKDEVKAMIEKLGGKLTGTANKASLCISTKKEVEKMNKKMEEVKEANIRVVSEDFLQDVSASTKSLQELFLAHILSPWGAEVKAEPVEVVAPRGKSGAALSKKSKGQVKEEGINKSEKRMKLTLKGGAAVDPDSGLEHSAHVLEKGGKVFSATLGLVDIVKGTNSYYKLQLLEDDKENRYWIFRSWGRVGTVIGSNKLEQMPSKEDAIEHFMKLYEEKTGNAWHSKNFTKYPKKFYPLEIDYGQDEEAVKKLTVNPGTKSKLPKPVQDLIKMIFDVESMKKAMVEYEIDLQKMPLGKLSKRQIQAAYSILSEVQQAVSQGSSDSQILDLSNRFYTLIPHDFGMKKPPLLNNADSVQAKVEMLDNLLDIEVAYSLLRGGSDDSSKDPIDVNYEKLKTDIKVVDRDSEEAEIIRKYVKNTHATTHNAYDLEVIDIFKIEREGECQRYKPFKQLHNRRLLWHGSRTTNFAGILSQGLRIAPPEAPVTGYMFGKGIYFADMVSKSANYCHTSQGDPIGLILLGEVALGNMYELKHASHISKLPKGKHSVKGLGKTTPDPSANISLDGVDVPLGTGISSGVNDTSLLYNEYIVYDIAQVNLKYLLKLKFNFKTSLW
From the text: Description of the PARP1 Assay
Biochemical Activity Testing of PARP-1: Autoparsylation Assay
as §1, with “His-tagged Parp-1 transfers” for “GST-tagged Tankyrase-1, resp Tankyrase-2 transferred”, “ADP-ribose/ADP-ribose” for “ADP-ribose”, “NAD/NAD” for “NAD”, “anti-His antibody” for “anti-GST”, “His” for “GST”, “is” for “was”
The autoparsylation assay is performed as 384-well HTRF® (Cisbio, Codolet, France) assay format in Greiner low volume nb 384-well microtiter plates. 35 nM His-tagged Parp-1 (human, recombinant, Enzo Life Sciences GmbH, Lörrach, Germany) and a mixture of 125 nM bio-NAD (Biolog, Life science Inst., Bremen, Germany) and 800 nM NAD as co-substrate are incubated in a total volume of 6 μl (100 mM Tris/HCl, 4 mM Mg-chloride, 0.01% IGEPAL® CA630, 1 mM DTT, 0.5% DMSO, pH 8, 13 ng/μl activated DNA (BPS Bioscience, San Diego, US)) in the absence or presence of the test compound (10 dilution concentrations) for 150 min at 23° C. The reaction is stopped by the addition of 4 μl of the Stop/detection solution (70 nM SA-Xlent® (Cisbio, Codolet, France), 2.5 nM Anti-His-K® (Eu-labelled anti-His, Cisbio, Codolet, France) in 50 mM HEPES, 400 mM KF, 0.1% BSA, 20 mM EDTA, pH 7.0). After 1 h incubation at room temperature the HTRF iss measured with an Envision multimode reader (Perkin Elmer LAS Germany GmbH) at excitation wavelength 340 nm (laser mode) and emission wavelengths 615 nm and 665 nm. The ratio of the emission signals is determined. The full value used is the inhibitor-free reaction. The pharmacological zero value used is Olaparib (LClabs, Woburn, US) in a final concentration of 1 The inhibitory values (IC50) are determined using either the program Symyx Assay Explorer® or Condosseo® from GeneData.

[3] = read-out: IC50 tankyrase 1 (enzyme assay)

Structure (SMILES): Cc1cc(F)cc2c(=O)[nH]c(-c3ccc(N4CCN(C)CC4)cc3)nc12 [Compound A28, 6-fluoro-8-methyl-2-[4-(4-methyl-piperazin-1-yl)-phenyl]-3H-quinazolin-4-one]
- IC50 [1, 3]: 300 to 3000 nM
- IC50 [2]: < 300 nM
- IC50 (His-tagged Parp-1): < 300 nM

Structure (SMILES): CC(C)(O)c1ccc(-c2nc3ccc(F)cc3c(=O)[nH]2)cc1 [Compound A1, 6-fluoro-2-[4-(1-hydroxy-1-methyl-ethyl)-phenyl]-3H-quinazolin-4-one]
- IC50 [1, 3]: < 300 nM
- IC50 [2]: < 300 nM
- IC50 (His-tagged Parp-1): 300 to 3000 nM

Structure (SMILES): Cc1cc(F)cc2c(=O)[nH]c(-c3ccc(C(C)(C)O)cc3)nc12 [Compound A25, 6-fluoro-2-[4-(1-hydroxy-1-methyl-ethyl)-phenyl]-8-methyl-3H-quinazolin-4-one]
- IC50 [1, 3]: < 300 nM
- IC50 [2]: < 300 nM
- IC50 (His-tagged Parp-1): < 300 nM

Structure (SMILES): CC(C)(O)c1ccc(-c2nc3cccc(F)c3c(=O)[nH]2)cc1 [Compound A4, 5-fluoro-2-[4-(1-hydroxy-1-methyl-ethyl)-phenyl]-3H-quinazolin-4-one]
- IC50 [1, 3]: < 300 nM
- IC50 [2]: < 300 nM
- IC50 (His-tagged Parp-1): 300 to 3000 nM

Structure (SMILES): Cc1cccc2c(=O)[nH]c(-c3ccc(C(C)(C)O)cc3)nc12 [Compound A24, 2-[4-(1-hydroxy-1-methyl-ethyl)-phenyl]-8-methyl-3H-quinazolin-4-one]
- IC50 [1, 3]: < 300 nM
- IC50 [2]: < 300 nM
- IC50 (His-tagged Parp-1): < 300 nM

Structure (SMILES): O=c1[nH]c(-c2ccc(C3CCNCC3)cc2)nc2c(F)cc(F)cc12 [Compound A34, 6,8-difluoro-2-(4-piperidin-4-yl-phenyl)-3H-quinazolin-4-one hydrochloride]
- IC50 [1]: < 300 nM

- IC50 (His-tagged Parp-1): 300 to 3000 nM
Structure (SMILES): CC(C)(O)c1ccc(-c2nc3c(F)cc(F)cc3c(=O)[nH]2)cc1 [Compound A11, 6,8-difluoro-2-[4-(1-hydroxy-1-methyl-ethyl)phenyl]-3H-quinazolin-4-one]

Structure (SMILES): CC(C)(O)c1ccc(-c2nc3cccc(Cl)c3c(=O)[nH]2)cc1 [Compound A23, 5-chloro-2-[4-(1-hydroxy-1-methyl-ethyl)-phenyl]-3H-quinazolin-4-one]
- IC50 [1, 3]: 300 to 3000 nM
- IC50 [2]: < 300 nM

Structure (SMILES): Cc1cc(F)cc2c(=O)[nH]c(-c3ccc(C(C)(C)OCCO)cc3)nc12 [Compound A21, 6-fluoro-2-{4-[1-(2-hydroxy-ethoxy)-1-methyl-ethyl]-phenyl}-8-methyl-3H-quinazolin-4-one]
- IC50 [1, 3]: 300 to 3000 nM
- IC50 [2]: < 300 nM
- IC50 (His-tagged Parp-1): 300 to 3000 nM

Structure (SMILES): COc1cccc2c(=O)[nH]c(-c3ccc(C(C)(C)O)cc3)nc12 [Compound A2, 2-[4-(1-hydroxy-1-methyl-ethyl)-phenyl]-8-methoxy-3H-quinazolin-4-one]
- IC50 [1, 3]: < 300 nM
- IC50 [2]: < 300 nM
- IC50 (His-tagged Parp-1): 300 to 3000 nM

Structure (SMILES): CC(C)(O)c1ccc(-c2nc3ccc(F)cc3c(=O)[nH]2)nc1 [Compound A13, 6-fluoro-2-[5-(1-hydroxy-1-methyl-ethyl)-2-pyridyl]-3H-quinazolin-4-one]
- IC50 [1, 3]: 300 to 3000 nM

Structure (SMILES): CC(C)(OCCO)c1ccc(-c2nc3ccc(F)cc3c(=O)[nH]2)cc1 [Compound A7, 6-fluoro-2-{4-[1-(2-hydroxy-ethoxy)-1-methyl-ethyl]-phenyl}-3H-quinazolin-4-one]
- IC50 [1, 3]: < 300 nM
- IC50 [2]: < 300 nM
- IC50 (His-tagged Parp-1): 300 to 3000 nM

Structure (SMILES): COCCOC(C)(C)c1ccc(-c2nc3ccc(F)cc3c(=O)[nH]2)cc1 [Compound A8, 6-fluoro-2-{4-[1-(2-methoxy-ethoxy)-1-methyl-ethyl]-phenyl}-3H-quinazolin-4-one]
- IC50 [1, 3]: 300 to 3000 nM
- IC50 [2]: < 300 nM
- IC50 (His-tagged Parp-1): 3000 to 50000 nM

Structure (SMILES): CC(C)(O)c1ccc(-c2nc3c(F)ccc(F)c3c(=O)[nH]2)cc1 [Compound A27, 5,8-difluoro-2-[4-(1-hydroxy-1-methyl-ethyl)-phenyl]-3H-quinazolin-4-one]
- IC50 [1, 3]: < 300 nM

Structure (SMILES): CC(C)(O)c1ccc(-c2nc3ccc(Cl)cc3c(=O)[nH]2)cc1 [Compound A5, 6-chloro-2-[4-(1-hydroxy-1-methyl-ethyl)-phenyl]-3H-quinazolin-4-one]
- IC50 [1, 3]: < 300 nM
- IC50 [2]: < 300 nM
